# In patent US10532040B2, “Methods of treating cancer with herbacetin” (REGENTS OF THE UNIVERSITY OF MINNESOTA, priority 2011, dated 2020):
# Entries after “also recorded” stand apart in the source; their conditions may differ.
# Columns and labels:
# [1] = test system: HCT116 cells (shMock, shODC, shODC+ODC); experiment: growth of shMock, shODC and shODC+ODC HCT116 cells; format: cell-based
# Procedure: FIGS. 4A-4B. The anti-cancer activity exerted by herbacetin is dependent on ODC expression. (a) The effect of herbacetin on HCT116 colon cancer cell growth was assessed in shMock, shODC and shODC cells with rescued ODC expression. Cells were incubated for 72 h and growth was determined by MTS assay. (b) The effect of herbacetin on anchorage independent HCT116 colon cancer cell growth was assessed inshMock, shODC and shODC cells with rescued ODC expression. Cells were incubated in 0.3% agar for 3 weeks and colonies were counted using a microscope and the Image-Pro PLUS (v.6) computer software program. Data are represented as means±S.D. of triplicate values. The asterisk (*) indicates a significant effect (p<0.05) of herbacetin or DFMO compared to untreated controls.
# The lentiviral expression vectors, including pLKO.1-shODC and packaging vectors, including pMD2.0G and psPAX, were purchased from Addgene Inc. (Cambridge, Mass.). […] The transfection medium was changed at 4 h after transfection and then cells were cultured for 36 h. The viral particles were harvested by filtration using a […] syringe filter and then combined with 8 μg/ml of polybrane (Millipore, Billerica, Mass.) and infected into 60% confluent HCT-116 cells overnight. The cell culture medium was replaced with fresh complete growth medium for 24 h and then cells were selected with 1.5 μg/ml of puromycine for 36 h. The selected cells were used for experiments.
# ERKs/RSK2 signaling = experiment: TPA- or EGF-induced phosphorylation of ERK1 and ERK2 in JB6 cells, Western blotting; format: cell-based, mouse; conditions: herbacetin 2 h then TPA or EGF 15 min
# Procedure: FIGS. 6A-6B. The effect of herbacetin on (a) TPA- or (b) EGF-induced phosphorylation of ERK1 and ERK2 in JB6 mouse epidermal cells was analyzed by Western blotting. Serum-starved (0.1% FBS; 24 h) cells were treated with various doses of herbacetin for 2 h followed by treatment with TPA for 15 min.
# We determined whether herbacetin affected the reporter activity of the MAP kinase target transcription factor, activator protein-1 (AP-1), in HCT116 cells or JB6 cells stimulated with TPA. HCT116 cells were treated with herbacetin for 48 hand JB6 cells were pre-treated with herbacetin for 2 h before stimulation with TPA for 48 h. AP-1 reporter activity was then measured (FIG. 3f, g) and the activity was attenuated by herbacetin in colon cancer cells and in TPA-activated JB6 cells. […] We next examined whether herbacetin directly suppresses phosphorylation of ERK1/2. JB6 cells were treated with TPA or EGF for 15 min after pre-treatment with herbacetin for 2 h and protein expression was analyzed by Western blotting (Supplementary FIG. 2a,b).
smiles,measurement,setting,value
"O=c1c(O)c(-c2ccc(O)cc2)oc2c(O)c(O)cc(O)c12 [herbacetin, 3,5,7,8,4′-Pentahydroxyflavone]",inhibitory effect on anchorage-dependent and -independent growth of shODC cells,[1]; shODC vs shMock HCT116 cells,resistance to herbacetin; also recorded: resistant
same,sensitivity of shODC cells with rescued ODC expression,[1]; shODC+ODC HCT116 cells,restored; also recorded: regained sensitivity
same,inhibition of colony growth after re-introduction of ODC into sh-ODC knockdown cells,"[1]; shODC+ODC HCT116 cells, soft agar",restored sensitivity
same,direct suppression of ERKs/RSK2 signaling,ERKs/RSK2 signaling,does not occur directly through the suppression of ERKs/RSK2 signaling
